Assay [1] has as its target T1, C5aR (Homo sapiens (Human), UniProt P21730). Description: Calcium mobilization (U937/C5aR or HEK293/C5aR cells, FLIPR). The assay is classed as cell-based. The following applies: agonist human C5a at EC80, FLIPR. In outline: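 FLIPR calcium-flux read-out using Fluo-4 Direct-loaded C5aR-expressing U937 or HEK293 cells stimulated with human C5a at its EC80. Compound was applied for 60 min before dye loading (50 min at 37 °C plus 10 min at room temperature) and agonist addition.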

In assay [2] the target is T1, C5aR. As to the kind of experiment: Inhibition of C5a-C5aR binding determined by cell migration assay (U937/C5aR cells). The assay is classed as cell-based. The note with it: U937/C5aR cell migration towards human C5a, 180 min. The procedure: Migration assay was performed by using polycarbonate membrane with 3.0 µm pore (Corning). U937/C5aR cells were collected and washed twice by PBS; cells were suspended in Hank's balanced salt solution (HBSS)+1% FBS buffer at the density of 6×10^6 cells/ml. Cells were premixed with compound and added to insert well, ligand human C5a and compound were added to bottom well in order, gently mix, incubate for 30 min at 37° C., […]. Put insert plate into bottom well, migrate for 180 min at 37° C., […]. Gently remove the insert well, add 50 μl CellTiter-Glo (Promega), gently shaking for 5 min at room temperature, transfer 150 μl mixture to black plate and read luminescence intensity by
microplate reader (BioTek).

Assay [3] has as its target human C5a receptor (C5aR) (Homo sapiens (Human), UniProt P21730). As to the kind of experiment: Inhibition of C5a-C5aR binding (biotinylated human C5a, U937/C5aR cells, FACS). In outline: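 Binding read by flow cytometry as FITC-streptavidin signal (30 min on ice) on washed cells after a 120 min on-ice incubation of compound with biotinylated human C5a (30 nM working solution). Cells used were C5aR-transfected U937, suspended at 3×10^6 cells/ml in PBS containing 0.1% BSA.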

SMILES strings stand for the structures.

T1 sequence (P21730 whole entry): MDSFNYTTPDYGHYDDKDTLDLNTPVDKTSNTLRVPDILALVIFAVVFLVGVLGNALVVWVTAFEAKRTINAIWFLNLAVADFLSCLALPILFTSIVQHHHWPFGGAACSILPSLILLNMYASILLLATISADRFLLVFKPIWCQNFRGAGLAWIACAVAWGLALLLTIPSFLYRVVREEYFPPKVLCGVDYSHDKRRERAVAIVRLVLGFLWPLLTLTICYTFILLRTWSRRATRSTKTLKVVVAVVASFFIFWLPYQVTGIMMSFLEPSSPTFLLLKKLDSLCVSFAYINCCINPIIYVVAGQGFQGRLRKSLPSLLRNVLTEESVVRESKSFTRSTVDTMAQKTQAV
Chain of human C5a receptor (C5aR) (P21730 whole entry): as above

What is called IC50 is the concentration at which inhibition is half-maximal. In the case of `Cc1cccc(F)c1C(=O)N1[C@@H]2CCC[C@@H]2C[C@H](C(=O)Nc2cccc(S(C)(=O)=O)c2)[C@@H]1c1ccc(NC2CCCC2)cc1` (racemic) [Compound 70, cis-2-(4-(cyclopentylamino)phenyl)-1-(2-fluoro-6-methylbenzoyl)-N-(3-(methylsulfonyl)phenyl)octahydro-1H-cyclopenta[b]pyridine-3-carboxamide], the IC50 on C5aR [1] fell in the range of 2000 to 10000 nM; at C5aR [2], 500 to 2000 nM; in assay [3], 500 to 2000 nM.

On to `Cc1ccc(NC(=O)[C@H]2CC[C@@H]3CCc4cccc(F)c4C(=O)N3C2c2ccc(NC3CCCC3)cc2)cc1C(F)(F)F` (relative stereo) [Compound 41, cis-4-(4-(cyclopentylamino)phenyl)-7-fluoro-N-(4-methyl-3-(trifluoromethyl)phenyl)-6-oxo-1,2,3,4,6,11,12,12a-octahydrobenzo[e]pyrido[1,2-a]azepine-3-carboxamide], for which the IC50 on C5aR [1] was 2000 to 10000 nM; on C5aR [2] it was 50 to 500 nM; in assay [3], 500 to 2000 nM.

Regarding `Cc1cccc(F)c1C(=O)N1C2CCC[C@@H]2C[C@H](C(=O)Nc2cccc(C(F)(F)F)c2)[C@@H]1c1ccc(NC2CCCC2)cc1` (relative stereo) [Compound 46, cis-2-(4-(cyclopentylamino)phenyl)-1-(2-fluoro-6-methylbenzoyl)-N-(3-(trifluoromethyl)phenyl)octahydro-1H-cyclopenta[b]pyridine-3-carboxamide], the IC50 (at C5aR [1]; at C5aR [2]; in assay [3]) was 50 to 500 nM throughout.

Regarding `Cc1cccc(F)c1C(=O)N1C2CCC[C@@H]2C[C@H](C(=O)Nc2cccnc2)[C@@H]1c1ccc(NC2CCCC2)cc1` (relative stereo) [Compound 57, cis-2-(4-(cyclopentylamino)phenyl)-1-(2-fluoro-6-methylbenzoyl)-N-(pyridin-3-yl)octahydro-1H-cyclopenta[b]pyridine-3-carboxamide], the IC50 on C5aR [1] fell in the range of 2000 to 10000 nM; on C5aR [2] it was 50 to 500 nM; in assay [3], 50 to 500 nM.

Turning to `Cc1cccc(F)c1C(=O)N1C(c2ccc(NC3CCCC3)cc2)C(C(=O)Nc2ccc3c(c2)CCN(C)C3)C[C@@H]2CCC[C@@H]21` (relative stereo) [Compound 77, cis-2-(4-(cyclopentylamino)phenyl)-1-(2-fluoro-6-methylbenzoyl)-N-(2-methyl-1,2,3,4-tetrahydroisoquinolin-6-yl)octahydro-1H-cyclopenta[b]pyridine-3-carboxamide], the results for the half-inhibitory concentration (IC50) (at C5aR [1]; at C5aR [2]; in assay [3]) were 2000 to 10000 nM, over 5000 nM and 2000 to 5000 nM, respectively.

For the compound `Cc1cccc(F)c1C(=O)N1C(c2ccc(NC3CCCC3)cc2)C(C(=O)Nc2cnc3cnn(C)c3c2)C[C@@H]2CCC[C@@H]21` (relative stereo) [Compound 78, cis-2-(4-(cyclopentylamino)phenyl)-1-(2-fluoro-6-methylbenzoyl)-N-(1-methyl-1H-pyrazolo[4,3-b]pyridin-6-yl)octahydro-1H-cyclopenta[b]pyridine-3-carboxamide], the IC50 lay within 500 to 2000 nM at C5aR [1], 50 to 500 nM on C5aR [2] and 50 to 500 nM in assay [3].

Take `Cc1ccc(NC(=O)C2C[C@@H]3CCC[C@@H]3N(C(=O)c3c(C)cccc3F)C2c2ccc(NC3CCOCC3)cc2)cc1C(F)(F)F` (relative stereo) [Compound 88, cis-1-(2-fluoro-6-methylbenzoyl)-N-(4-methyl-3-(trifluoromethyl)phenyl)-2-(4-((tetrahydro-2H-pyran-4-yl)amino)phenyl)octahydro-1H-cyclopenta[b]pyridine-3-carboxamide]: the IC50 was under 50 nM on C5aR [1], under 50 nM on C5aR [2] and 50 to 500 nM in assay [3].

On to `Cc1cccc(F)c1C(=O)N1C2CCC[C@@H]2C[C@H](C(=O)Nc2ccc3cccnc3c2)[C@@H]1c1ccc(NC2CCOCC2)cc1` (relative stereo) [Compound 90, cis-1-(2-fluoro-6-methylbenzoyl)-N-(quinolin-7-yl)-2-(4-((tetrahydro-2H-pyran-4-yl)amino)phenyl)octahydro-1H-cyclopenta[b]pyridine-3-carboxamide], for which the IC50 (on C5aR [1]; on C5aR [2]; in assay [3]) was 50 to 500 nM throughout.

For `Cc1ccc(NC(=O)C2C[C@@H]3CCC[C@@H]3N(C(=O)c3cocn3)C2c2ccc(NC3CCCC3)cc2)cc1C(F)(F)F` (relative stereo) [Compound 110, cis-2-(4-(cyclopentylamino)phenyl)-N-(4-methyl-3-(trifluoromethyl)phenyl)-1-(oxazole-4-carbonyl)octahydro-1H-cyclopenta[b]pyridine-3-carboxamide], the IC50 was over 10000 nM at C5aR [1], 50 to 500 nM at C5aR [2] and 50 to 500 nM in assay [3].

For `Cc1ccc(NC(=O)C2C[C@H]3CCC[C@H]3N(C(=O)C3CCOCC3)[C@H]2c2ccc(NC3CCCC3)cc2)cc1C(F)(F)F` (relative stereo) [Compound 111, cis-2-(4-(cyclopentylamino)phenyl)-N-(4-methyl-3-(trifluoromethyl)phenyl)-1-(tetrahydro-2H-pyran-4-carbonyl)octahydro-1H-cyclopenta[b]pyridine-3-carboxamide], the values for the IC50 (at C5aR [1]; at C5aR [2]; in assay [3]) were 2000 to 10000 nM, 50 to 500 nM and 50 to 500 nM, respectively.

`Cc1ccc(NC(=O)C2C[C@H]3CCC[C@H]3N(C(=O)c3cscn3)C2c2ccc(NC3CCCC3)cc2)cc1C(F)(F)F` (relative stereo) [Compound 114, cis-2-(4-(cyclopentylamino)phenyl)-N-(4-methyl-3-(trifluoromethyl)phenyl)-1-(thiazole-4-carbonyl)octahydro-1H-cyclopenta[b]pyridine-3-carboxamide]: the IC50 on C5aR [1] was over 10000 nM; on C5aR [2], 50 to 500 nM; in assay [3], under 50 nM.

As to `Cc1ccc(NC(=O)C2C[C@H]3CCC[C@H]3N(C(=O)c3cncnc3)C2c2ccc(NC3CCCC3)cc2)cc1C(F)(F)F` (relative stereo) [Compound 115, cis-2-(4-(cyclopentylamino)phenyl)-N-(4-methyl-3-(trifluoromethyl)phenyl)-1-(pyrimidine-5-carbonyl)octahydro-1H-cyclopenta[b]pyridine-3-carboxamide], the concentration for half-maximal inhibition (IC50) on C5aR [1] was over 10000 nM; on C5aR [2], 50 to 500 nM; in assay [3] it was 50 to 500 nM.

In the case of `Cc1ccc(NC(=O)C2C[C@@H]3COC[C@@H]3N(C(=O)c3c(C)cccc3F)C2c2ccc(NC3CCCC3)cc2)cc1C(F)(F)F` (relative stereo) [Compound 118, cis-2-(4-(cyclopentylamino)phenyl)-1-(2-fluoro-6-methylbenzoyl)-N-(4-methyl-3-(trifluoromethyl)phenyl)octahydrofuro[3,4-b]pyridine-3-carboxamide], the IC50 at C5aR [1] was 50 to 500 nM; on C5aR [2], under 50 nM; in assay [3] it was under 50 nM.

Regarding `Cc1cccc(F)c1C(=O)N1C(c2ccc(NC3CCCC3)cc2)C(C(=O)Nc2ccc3c(cnn3C)c2)C[C@@H]2COC[C@@H]21` (relative stereo) [Compound 121, cis-2-(4-(cyclopentylamino)phenyl)-1-(2-fluoro-6-methylbenzoyl)-N-(1-methyl-1H-indazol-5-yl)octahydrofuro[3,4-b]pyridine-3-carboxamide], the IC50 (on C5aR [1]; at C5aR [2]; in assay [3]) was 50 to 500 nM throughout.

Turning to `Cc1ccc(NC(=O)C2C[C@@H]3COC[C@@H]3N(C(=O)c3c(C)cccc3F)C2c2ccc(CN3CCOCC3(C)C)cc2)cc1C(F)(F)F` (relative stereo) [Compound 141, cis-2-(4-((3,3-dimethylmorpholino)methyl)phenyl)-1-(2-fluoro-6-methylbenzoyl)-N-(4-methyl-3-(trifluoromethyl)phenyl)octahydrofuro[3,4-b]pyridine-3-carboxamide], the values for the IC50 (on C5aR [1]; on C5aR [2]; in assay [3]) were 2000 to 10000 nM, 500 to 2000 nM and 50 to 500 nM, respectively.

In the case of `Cc1cccc(F)c1C(=O)N1C(c2ccc(NC3CCCC3)cc2)C(C(=O)Nc2ccc3c(cnn3C)c2)C[C@@H]2CCC[C@@H]21` (relative stereo) [Compound 147, cis-2-(4-(cyclopentylamino)phenyl)-1-(2-fluoro-6-methylbenzoyl)-N-(1-methyl-1H-indazol-5-yl)octahydro-1H-cyclopenta[b]pyridine-3-carboxamide], the IC50 is 50 to 500 nM on C5aR [1], 50 to 500 nM at C5aR [2] and under 50 nM in assay [3].

In the case of `Cc1cccc(F)c1C(=O)N1C(c2ccc(NC3CCOCC3)cc2)C(C(=O)Nc2ccc3c(cnn3C)c2)C[C@@H]2CCC[C@@H]21` (relative stereo) [Compound 158, cis-1-(2-fluoro-6-methylbenzoyl)-N-(1-methyl-1H-indazol-5-yl)-2-(4-((tetrahydro-2H-pyran-4-yl)amino)phenyl)octahydro-1H-cyclopenta[b]pyridine-3-carboxamide], the IC50 is 50 to 500 nM at C5aR [1], under 50 nM on C5aR [2] and under 50 nM in assay [3].

The record behind these values is patent US20240043439A1, “COMPOUNDS AS C5AR INHIBITORS” (Kira Pharmaceuticals (Suzhou) Ltd., priority 2020, published 2024).
